Paper PMC5820187 (Archives of toxicology, 2017)
Where two headings read alike, the source gives them in different places.

How the values were obtained:
[1] = test system: embryonic zebrafish; details: for Bioactivity across the developmental toxicity assays (morphology, EPR, LPR): exposure 6-120 hpf
[2] = test system: CYP1A protein expression; details: zebrafish, in vivo
[3] = test system: embryonic zebrafish; experiment: Embryonic photomotor response; type: in vivo; details: 24 hpf embryos; for EPR effect: any phase
[4] = test system: zebrafish larvae; experiment: Larval photomotor response; type: in vivo; details: 120 hpf larvae; for LPR effect: at least one phase (light or dark)
[5] = static exposure 6-120 hpf, 0.1-50 μM, assessed at 24 and 120 hpf
[6] = hierarchical clustering of lowest effect levels, Fig 2

c1ccc2cc3ccccc3cc2c1 [Anthracene]
Mortality and morphological effects (developmental toxicity endpoints, LELs) [1, 5]: no observed morphology effects

c1ccc2c(c1)cc1ccc3cccc4c5ccccc5c2c1c34 [Dibenzo[a,l]pyrene]
Developmental toxicity profile group [1, 6]: Groups 1 and 2

Cc1cccc2c(C)cccc12 [1,5-dimethylnaphthalene]
Tissue Type expressing CYP1A [2]: Liver

O=[N+]([O-])c1cc2ccc3cccc4ccc(c1)c2c34 [2-nitropyrene]
Bioactivity across the developmental toxicity assays (morphology, EPR, LPR) ([1]; 0.1-50 μM): only the cumulative ‘any’ endpoints

c1ccc2c(c1)oc1ccccc12 [Dibenzofuran]
Tissue Type expressing CYP1A [2]: Vasculature

Oc1cccc2c(O)cccc12 [1,5-dihydroxynaphthalene]
Mortality and morphological effects (developmental toxicity endpoints, LELs) [1, 5]: effects on mortality or morphology

c1ccc2c(c1)ccc1ccccc12 [Phenanthrene]
EPR effect [3]: did not induce mortality or morphology changes, EPR effects
LPR effect in the light phase [4]: hyperactivity

c1ccc2cc3c4ccccc4c4ccccc4c3cc2c1 [Dibenz[a,c]anthracene]
Developmental toxicity profile group [1, 6]: Groups 1 and 2

Oc1cc2ccccc2cc1O [2,3-dihydroxynaphthalene]
EPR effect [3]: significant effects on EPR

O=C1c2ccccc2C(=O)c2ccccc21 [Anthraquinone]
Mortality and morphological effects (developmental toxicity endpoints, LELs) [1, 5]: did not cause morphological effects

c1cc2ccc3cccc4ccc(c1)c2c34 [Pyrene]
LPR effect [4]: significant LPR effects

c1ccc2c(c1)cc1ccc3cc4ccccc4c4ccc2c1c34 [Dibenzo[a,i]pyrene]
Mortality and morphological effects (developmental toxicity endpoints, LELs) [1, 5]: no observed morphology effects

O=[N+]([O-])c1ccc2cc3ccccc3cc2c1 [2-nitroanthracene]
LPR effect [4]: every derivative except 2-nitroanthracene and 2-ethylanthraquinone affected LPR behavior

Cc1ccc2ccc3ccc(C)cc3c2c1 [3,6-dimethylphenanthrene]
EPR effect [3]: hypoactivity
LPR effect in the light phase [4]: effects on LPR in the light

Oc1cccc2ccccc12 [1-hydroxynaphthalene]
Mortality and morphological effects (developmental toxicity endpoints, LELs) ([1]; zebrafish, in vivo): effects on mortality or morphology

O=C1C=Cc2ccccc2C1=O [1,2-naphthoquinone]
Mortality and morphological effects (developmental toxicity endpoints, LELs) [1, 5]: effects on mortality or morphology

c1ccc2c(c1)-c1cccc3cccc-2c13 [Fluoranthene]
Tissue Type expressing CYP1A [2]: Vasculature, Yolk

Cc1cccc2c1ccc1cc(C(C)C)ccc12 [Retene]
Tissue Type expressing CYP1A [2]: Vasculature

c1ccc2ncccc2c1 [Quinoline]
EPR effect [3]: only had an observed effect on EPR
Developmental toxicity profile group ([1]; zebrafish, in vivo): Group 5

c1ccc2[nH]ccc2c1 [Indole]
Tissue Type expressing CYP1A [2]: Yolk

O=C1C=CC(=O)c2cc3ccccc3cc21 [1,4-anthraquinone]
Bioactivity across the developmental toxicity assays (morphology, EPR, LPR) ([1]; 0.1-50 μM): most toxic derivative tested
Concentrations with increased mortality ([1]; static exposure 6-120 hpf): below 10 μM

c1ccc2c(c1)cc1ccc3c4ccccc4cc4ccc2c1c43 [Dibenzo[a,h]pyrene]
EPR effect in the Refractory period [3]: hypoactive response

CCc1ccc2c(c1)C(=O)c1ccccc1C2=O [2-ethylanthraquinone]
LPR effect [4]: every derivative except 2-nitroanthracene and 2-ethylanthraquinone affected LPR behavior
Tissue Type expressing CYP1A [2]: Yolk
Mortality and morphological effects (developmental toxicity endpoints, LELs) ([1]; zebrafish, in vivo): increased mortality
Number of developmental endpoints affected ([1]; zebrafish, in vivo): 15

c1ccc2ccccc2c1 [Naphthalene]
LPR effect in the dark phase [4]: hyperactivity
LPR effect in the light phase [4]: hyperactivity

Oc1ccc2ccccc2c1 [2-hydroxynaphthalene]
Mortality and morphological effects (developmental toxicity endpoints, LELs) ([1]; zebrafish, in vivo): effects on mortality or morphology

Cc1ccc2cc(C)ccc2c1 [2,6-dimethylnaphthalene]
LPR effect [4]: All derivatives except 2,6-dimethylnaphthalene had LPR effects in at least one phase
